Values quoted from earlier work in PMC5409479 (The Journal of Biological Chemistry, 2017).
One block for each substance: values may come before it.

Experiments:
[1] = tested on: GLP-1R, mutation of Glu-125 to Ala; design: method as in PMID 19815559, PMID 21868452, PMID 20529866
GLP-1R L89A = tested on: GLP-1R L89A; design: method as in PMID 19861722
[2] = tested on: GLP-1R, mutation of Arg-40 to Ala
Text: (§1) This could also move residues Thr-35, Trp-39, Tyr-88, Leu-89, Pro-90, and Trp-91 away from the peptide interface observed in the crystal structure, while bringing Trp-33 and Arg-40 into closer proxim ...

[3] = tested on: GLP-1R, mutation of Trp-39 to Ala or Phe; conditions: expression comparable with wild type
Text: as §1

[4] = tested on: GCGR, mutation of Trp-36 to Ala; conditions: GCGR Trp-36 to Ala; significantly increased expression
Text: as §1

Substance: exendin(9–39)
affinity and agonism (in words) (GLP-1R): a high affinity antagonist

GLP-1 peptide binding (in words) (GLP-1R L89A): abolishing GLP-1 peptide binding | GLP-1 binding (in words) [3]: loss of detectable GLP-1 binding
Substance: GLP-1: cognate ligand of GLP-1R
GLP-1 binding affinity or function (in words) [1]: did not significantly impact GLP-1 binding affinity or function | binding affinity of GLP-1 (in words) [2]: small decrease in binding affinity of GLP-1

Substance: GLP-1(7–36)NH2: a high affinity agonist
affinity and agonism (in words) (GLP-1R): a high affinity agonist

Substance: GLP-1(9–36)NH2
affinity and agonism (in words) (GLP-1R): a low affinity partial agonist

GCG binding (in words) [4]: no detectable binding of GCG
Substance: GCG: glucagon
